# “Also recorded” adds a separate entry of the source.
# B1: G-CSF: Granulocyte colony-stimulating factor polypeptide, irradiation mitigator (protein, listed as Homo sapiens)
# chain: MAGPATQSPMKLMALQLLLWHSALWTVQEATPLGPASSLPQSFLLKCLEQVRKIQGDGAALQEKLVSECATYKLCHPEELVLLGHSLGIPWAPLSSCPSQALQLAGCLSQLHSGLFLYQGLLQALEGISPELGPTLDTLQLDVADFATTIWQQMEELGMAPALQPTQGAMPAFASAFQRRAGGVLVASHLQSFLEVSYRVLRHLAQP
# Key:
# [1] = test system: C57BL/6NTac mice irradiated to 9.25 Gy total body irradiation; assay: Survival after 9.25 Gy total body irradiation (TBI); assay type: in vivo, mouse; settings: 9.25 Gy TBI; for survival at 30 days after TBI: treatment 24 hrs later, FIG. 7, irradiated control 10%; for 30 days survival: JP4-039 20 mg/kg I.M., G-CSF 4 mg/kg I.P. at 24 h, n=10, irradiated controls 20%
# Source text: Mice and Animal Care. Female C57BL/6NTac (Taconic Biosciences, Wayne, Pa.) and C57BL/6 lgr5+ green fluorescent protein tagged (5-6) lgr5+ mice were housed 5 per cage and fed standard laboratory chow and deionized drinking water according to University of Pittsburgh IACUC regulations.
# Irradiation. Total body irradiation was delivered with a cesium-137 Gamma Cell irradiator with filters removed at a dose rate of […], beam flatness, homogeneity, and analysis of spectrum of gamma ray precise dosimetry were carried out. Mice were irradiated in a plexiglass pie plate that contains 12 sections. Five mice were placed in each pie plate. The mice were not placed in adjacent sections, but had one or two empty sections between mice so that the mice would not shield the other mice in the pie plate. Thermoluminescent (TLD) readings according to published methods. [Steinman J, et al., Improved total- body irradiation survival by delivery of two radiation mitigators that target distinct cell death pathways. Radiat Res 189(1): 68-83, 2018.]
# Dose Response Curve of Number of Gavaged Lactobacillus-reuteri, or E. coli Producing IL-22 or IFN-β. Mice were irradiated to 9.25 Gy TBI, which took 13-14 minutes, and were then 24 h later gavaged with 100 μL saline solution containing Lactobacillus reuteri-IL-22, or E. coli-IL-22, or at 48 hrs post irradiation E. coli-IFN-β (based on the known time of requirement for IFN-β by lgr5+ cells at this time). All groups of mice received 100 μL saline, which contained varying numbers of bacteria ranging from 10^9, 10^8, 10^7, to 10^6 bacteria (n=10 animals per group).
# Administration of Small Molecule Radiation Mitigator, IL-22 Protein, L. reuteri Lacking IL-22, or Gavaged Fecal Microbiome. As a control for probiotic mitigators, the GS-nitroxide, JP4-039 [Rwigema J -CM, et al., Two strategies for the development of mitochondrial-targeted small molecule radiation damage mitigators. Int J Radiat Oncol Biol Phys 80(3): 860-868, 2011], was prepared and administered according to published methods, I.M. at 20 mg/kg in 50 μL of 30% cyclodextrin aqueous [Epperly M W, et al., Evaluations of different formulations and routes for the delivery of the ionizing radiation mitigation GS-nitroxide (JP4-039). In Vivo 32: 1009-1023, 2018]. Cyclodextrin alone has no radiomitigative effect. […]
# 10^9 L. reuteri lacking IL-22 was administered in 100 μl/saline. A similar number of bacteria from feces obtained from 30-day survivors of 9.25 Gy TBI was gavaged. Fecal microbiome transplant (FMT) was carried out by delivery by gavage in 100 μL saline; 10^9 bacteria from the feces of 30-day survivors of 9.25 Gy TBI of C57BL/6 female mice.
# C57BL/6NTac mice were irradiated to 9.25 Gy total body irradiation and gavaged with Lactobacillus reuteri-IL-22 or Lactobacillus reuteri harboring the empty vector control. […]
# To determine whether successful radiation mitigation correlated with changes in the intestinal microbiome, groups of mice received 9.25 Gy total body irradiation (TBI) and subgroups treated with the small molecule radiation mitigator, JP4-039 (20 mg/kg in 50 microliters of 30% 2-hydroxypropyl-β-cyclodextrin I.M.), G-CSF (4 mg/kg I.P.), or both mitigators at 24 h after TBI. Fecal pellets were analyzed pre-irradiation, and at days 1, 3, 5, 7, 10, 14, 21, and 30 after irradiation. […]
# IL-22 = assay: Intestinal level of IL-22 after TBI; assay type: in vivo, mouse; settings: 9.25 Gy TBI; treatment at 24 h; FIG. 17A
Molecule,"survival compared to irradiation only mice ([1]; treatment 24 hr after, IL-22 protein 0.1 mg/kg I.M., FIG. 9)",survival at 30 days after TBI [1] [%],30 days survival [1] [%],intestinal level of IL-22 after TBI (IL-22)
IL-22 protein: recombinant IL-22 protein injected as control,significantly increased survival; also recorded: significantly improved survival,40,–,–
CC(C)C[C@@H](/C=C/CC(=O)NC1CC(C)(C)N([O])C(C)(C)C1)NC(=O)OC(C)(C)C [JP4-039],–,70,50,restored IL-22 levels
B1,–,–,70,–

# Reference: US20220362340A1, “COMPOSITIONS AND USES THEREOF FOR TREATING IRRADIATION-INDUCED INTESTINAL DAMAGE” (UNIVERSITY OF PITTSBURGH-OF THE COMMONWEALTH SYSTEM OF …, priority 2019, published 2022)
